Laboratory results taken from patent US9572833B2, “Treatment of red blood cells” (The General Hospital Corporation, priority 2011, dated 2017).
Blank lines part the entries; values can stand above or below the compound they belong to.

What was measured:
NOS = assay: Partial inhibition of NOS by L-NAME in lambs (acetylcholine / sodium nitroprusside vasodilation, hemodynamics); type: in vivo
Experimental: (§1) Three additional groups of lambs were studied after intravenous infusion of the NOS inhibitor, N^G-nitro-L-arginine methyl-ester (L-NAME, Sigma-Aldrich, St. Louis, Mo.). A bolus of 25 mg/kg L-NAME was injected IV 1 h before transfusion (Weimann et al., Anesthesiology 2000; 92:1702-12). Concomitantly, an infusion of 5 mg/kg/h L-NAME was started and continued throughout the study. […] NOS-independent systemic vasodilation was also assessed by intravenous injection of sodium nitroprusside (Sigma-Aldrich) at the end of each experiment.

supernatant hemoglobin [1] = biological target: T1, supernatant hemoglobin (Homo sapiens, UniProt P68871+P69905); assay: MAHMA/NO treatment of human stored red blood cells; type: biochemical; conditions: human RBC stored 46 days
T1 construct: 99% of the supernatant hemoglobin being oxidized to methemoglobin; from tissue; host or cells: human stored red blood cells (46 days), supernatant and cells
T1 sequence (P69905 2-142 limits assumed): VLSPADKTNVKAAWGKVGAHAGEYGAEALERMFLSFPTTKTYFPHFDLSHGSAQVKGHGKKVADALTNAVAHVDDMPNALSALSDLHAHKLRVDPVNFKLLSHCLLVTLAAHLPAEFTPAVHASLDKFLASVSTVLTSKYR
T1 sequence (P68871 2-147 limits assumed): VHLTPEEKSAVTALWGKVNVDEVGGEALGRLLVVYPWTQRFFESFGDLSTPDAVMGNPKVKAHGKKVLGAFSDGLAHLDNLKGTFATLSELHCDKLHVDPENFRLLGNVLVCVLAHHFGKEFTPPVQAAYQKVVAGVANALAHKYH
Experimental: Human stored red blood cells (stored, 46 days) were treated with MAHMA/NO ((Z)-1-[N-Methyl-N-[6-(N-methylammoniohexyl)amino]]diazen-1-ium-1,2-diolate). […] In contrast, only 15% of the red blood cell hemoglobin was oxidized by this treatment (FIG. 14A).

supernatant hemoglobin [2] = biological target: T2, supernatant hemoglobin (Mus musculus, UniProt P01942+P02088); assay: MAHMA/NO treatment of murine stored red blood cells; type: biochemical; conditions: murine RBC stored 14 days
T2 construct: from tissue; host or cells: murine stored red blood cells (14 days), supernatant
T2 sequence (P01942 2-142 limits assumed): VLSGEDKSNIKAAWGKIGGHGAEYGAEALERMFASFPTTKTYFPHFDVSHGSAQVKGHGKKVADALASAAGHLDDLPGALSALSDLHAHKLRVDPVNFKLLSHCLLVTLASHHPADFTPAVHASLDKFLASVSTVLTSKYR
T2 sequence (P02088 2-147 limits assumed): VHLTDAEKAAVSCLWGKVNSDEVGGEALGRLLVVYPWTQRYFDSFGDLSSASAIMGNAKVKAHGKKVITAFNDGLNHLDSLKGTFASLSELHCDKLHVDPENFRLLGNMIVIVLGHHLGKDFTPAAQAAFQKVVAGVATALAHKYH
From the text: This is likely due to the higher levels of hemolysis observed in murine red blood cell storage. At baseline levels, hemolysis is higher than in human stored red blood cells, and increasing concentrations of MAHMA/NO were required to fully oxidize the […] hemoglobin.

[3] = Tail-cuff systolic blood pressure in db/db mice after infusion of MAHMA/NO pre-treated stored red blood cells; type: in vivo; conditions: SRBC pre-treated with 1 mM MAHMA/NO; awake db/db mice
Experimental: Murine stored red blood cells were pretreated with 1 mM MAHMA before infusion into db/db mice.

[4] = Non-invasive measurement of systolic blood pressure in awake mice after transfusion; type: in vivo; conditions: awake db/db mice; 80 ppm from 10 min prior to transfusion until 2 h after
Experimental: Systolic blood pressure was measured with a non-invasive blood pressure system (XBP 1000, Kent Scientific, Torrington, Conn.) (Yu et al., Circulation 2008; 117: 1982-90; Yu et al., Anesthesiology 2010; 112: 586-94). All tail vein injections were performed over one minute.

[5] = Hemodynamic effects of PRBC transfusion in awake lambs; type: in vivo; conditions: 80 ppm during transfusion and 30 min thereafter, no L-NAME
Experimental: (§2) Invasive hemodynamic measurements were performed in 28 lambs. Anesthesia was induced by breathing 5% isoflurane (Baxter, Deerfield, Ill.) in oxygen via mask. After endotracheal intubation, animals underwent a tracheostomy and were instrumented with indwelling carotid artery and pulmonary artery catheters, as previously described (Yu et al., Anesthesiology 2010; 112:586-94). After a 2-h recovery period from general anesthesia in a large-animal restraint unit (Lomir, Malone, N.Y.), the mean arterial pressure (MAP), mean pulmonary arterial pressure (PAP), and central venous pressure were monitored continuously using a Gould 6600 amplifier system (Gould Electronics, Inc., Eastlake, Ohio). Pulmonary capillary wedge pressure (PCWP) and heart rate were intermittently measured every 10-30 min. Cardiac output was assessed by thermal dilution as the average of three measurements after intravenous bolus-injection of 10 ml ice-cold saline solution. Systemic vascular resistance index and pulmonary vascular resistance index (PVRI), as well as cardiac index, were calculated using standard formulae. Hemodynamic data was collected until 4 h after the end of transfusion.
Six groups of awake lambs were studied. […]

[6] = Hemodynamic effects of PRBC transfusion in lamb model of L-NAME-induced endothelial dysfunction; type: in vivo; conditions: lambs pretreated with L-NAME
Experimental: as §2, §1
After L-NAME treatment, a fourth group of lambs (n=4) received fresh PRBCs, and a fifth group (n=5) received stored PRBCs. In the sixth group (n=4), following L-NAME injection, inhalation of 80 ppm nitric oxide at FiO2 0.25 was commenced 10 min prior to transfusion of stored PRBC. Nitric oxide breathing continued throughout the transfusion and for 30 min after transfusion ended.

human hemoglobin = biological target: T3, human hemoglobin (Homo sapiens, UniProt P68871+P69905); assay: Methemoglobin conversion after nitric oxide gas treatment of red blood cells via membrane gas exchanger; type: biochemical; conditions: 2600 ppm nitric oxide in nitrogen, single pass
T3 construct: from tissue; host or cells: human red blood cells (adsol-preserved) plus plasma with added human hemoglobin
T3 sequence (P69905 2-142 limits assumed): as the sequence (P69905 2-142 limits assumed) above
T3 sequence (P68871 2-147 limits assumed): as the sequence (P68871 2-147 limits assumed) above
Experimental: Plasma containing added human hemoglobin was added to adsol-preserved human red blood cells. The red blood cells were pumped (at flow rates of 5, 7.5, and 10 ml/min) through a membrane gas exchanger (Living Systems instrumentation Inc., St. Albans, Vt.), which exposed the cells (on a single pass through the gas exchanger) to 2600 ppm nitric oxide gas in nitrogen.

[7] = 25 mg/kg IV bolus plus 5 mg/kg/h infusion

SMILES: COC(=O)[C@@H](N)CCCNC(=N)N[N+](=O)[O-] [L-NAME, N^G-nitro-L-arginine methyl-ester]
Reduction in the ability of acetylcholine infusion to induce systemic vasodilation (NOS; [7]): 50%
Vasodilator response to intravenous bolus of sodium nitroprusside (NOS; [7]): did not alter the vasodilator response
Cardiac index and heart rate after L-NAME infusion (NOS; awake lambs): decreased
MAP, PAP, central venous pressure, PCWP, systemic and pulmonary vascular resistance indices after L-NAME infusion (NOS; awake lambs): increased

Red blood cell hemoglobin oxidized (supernatant hemoglobin [1]; 0.5 mM): 15%
Supernatant hemoglobin oxidized to methemoglobin (supernatant hemoglobin [1]; 0.5 mM): 99%
Supernatant methemoglobin (supernatant hemoglobin [2]; 1 mM): 70%
Level of cell-free hemoglobin in the supernatant (supernatant hemoglobin [2]): decreases upon addition of MAHMA/NO
SMILES: CNCCCCCCN(C)/[N+]([O-])=N/O [MAHMA/NO, (Z)-1-[N-Methyl-N-[6-(N-methylammoniohexyl)amino]]diazen-1-ium-1,2-diolate]
Hemolysis after addition of MAHMA/NO (supernatant hemoglobin [1]): no further hemolysis
Hypertensive effect caused by infusion of stored red blood cells [3]: attenuated the hypertensive effect

SMILES: [N]=O [nitric oxide]
Effect of breathing nitric oxide on systemic hypertension induced by SRBC transfusion [4]: completely prevented the systemic hypertension
PAP with transfusion of stored PRBCs while breathing nitric oxide ([5]; baseline 12±1): 13±1 mmHg
PVRI with transfusion of stored PRBCs while breathing nitric oxide ([5]; baseline 107±14): 105±22 dyn·sec·cm^−5·m^−2
Effect of inhalation of nitric oxide on MAP ([6]; 80 ppm): did not alter MAP
Effect of concurrent inhalation of nitric oxide on PAP and PVRI ([6]; 80 ppm, stored PRBC transfusion): reduced the PAP and PVRI to baseline
Time after end of nitric oxide breathing at which PAP and PVRI returned to pre-transfusion levels [6]: 60 min
Human red cell hemoglobin converted to methemoglobin (human hemoglobin): only a few percent
Supernatant oxyhemoglobin converted to methemoglobin (human hemoglobin; flow 5, 7.5, 10 ml/min, adsol-preserved human RBC): approximately 50%
